In brackets after ≈: the same amount, converted by molar mass.
Experiments:
[1] = test system: Oculimacula yallundae; assay: Fungicidal activity against prochloraz-susceptible Oculimacula yallundae isolate ProS assessed as inhibition of mycelial growth in presence of 10 g glucose incubated at 19 degC in dark for 4 weeks; assay type: functional, organism-based; conditions: 672 h
[2] = test system: Oculimacula yallundae; assay: Resistance index, ratio of EC50 for sterol 14alpha-demethylation inhibitor-resistant Oculimacula yallundae TriR2 to EC50 for wild type Oculimacula yallundae TriS by germ tube elongation assay; assay type: functional
[3] = test system: Oculimacula yallundae; assay: Fungicidal activity against Oculimacula yallundae assessed as inhibition of germ tube elongation incubated at 19 degC in dark for 48 hr; assay type: functional, organism-based
[4] = test system: Oculimacula yallundae; assay: Resistance index, ratio of EC50 for sterol 14alpha-demethylation inhibitor-resistant Oculimacula yallundae TriR2 to EC50 for sterol 14alpha-demethylation inhibitor-resistant Oculimacula yallundae TriR1 by germ tube elongation assay; assay type: functional
[5] = Selectivity index, ratio of EC50 for Oculimacula acuformis to EC50 for Oculimacula yallundae by germ tube elongation inhibition assay; assay type: functional
[6] = test system: Oculimacula yallundae; assay: Resistance index, ratio of EC50 for sterol 14alpha-demethylation inhibitor-resistant Oculimacula yallundae MDR to EC50 for sterol 14alpha-demethylation inhibitor-resistant Oculimacula yallundae TriR1 by germ tube elongation assay; assay type: functional
[7] = test system: Oculimacula yallundae; assay: Resistance index, ratio of EC50 for prochloraz-resistant Oculimacula yallundae isolate ProR2 to EC50 for prochloraz-susceptible Oculimacula yallundae isolate ProS by germ tube elongation inhibition assay; assay type: functional
[8] = test system: Oculimacula yallundae; assay: Fungicidal activity against prochloraz-susceptible Oculimacula yallundae isolate ProS assessed as inhibition of germ tube elongation incubated at 19 degC in dark for 48 hr; assay type: functional, organism-based
[9] = test system: Oculimacula yallundae; assay: Resistance index, ratio of EC50 for prochloraz-resistant Oculimacula yallundae isolate ProR2 to EC50 for prochloraz-susceptible Oculimacula yallundae isolate ProS by mycelial growth inhibition assay; assay type: functional
[10] = test system: Oculimacula acuformis; assay: Fungicidal activity against Oculimacula acuformis assessed as inhibition of mycelial growth in presence of 10 g glucose incubated at 19 degC in dark for 4 weeks; assay type: functional, organism-based; conditions: 672 h
[11] = test system: Oculimacula yallundae; assay: Resistance index, ratio of EC50 for prochloraz-resistant Oculimacula yallundae isolate ProR1 to EC50 for prochloraz-susceptible Oculimacula yallundae isolate ProS by mycelial growth inhibition assay; assay type: functional
[12] = test system: Oculimacula yallundae; assay: Fungicidal activity against Oculimacula yallundae assessed as inhibition of mycelial growth in presence of 10 g glucose incubated at 19 degC in dark for 4 weeks; assay type: functional, organism-based; conditions: 672 h
[13] = test system: Oculimacula yallundae; assay: Resistance index, ratio of EC50 for sterol 14alpha-demethylation inhibitor-resistant Oculimacula yallundae MDR to EC50 for wild type Oculimacula yallundae TriS by germ tube elongation assay; assay type: functional
[14] = test system: Oculimacula yallundae; assay: Resistance index, ratio of EC50 for sterol 14alpha-demethylation inhibitor-resistant Oculimacula yallundae TriR2 to EC50 for wild type Oculimacula yallundae TriS by mycelial growth inhibition assay; assay type: functional
[15] = Selectivity index, ratio of EC50 for Oculimacula acuformis to EC50 for Oculimacula yallundae in presence of 10 g glucose by mycelial growth inhibition assay; assay type: functional
[16] = test system: Oculimacula yallundae; assay: Resistance index, ratio of EC50 for sterol 14alpha-demethylation inhibitor-resistant Oculimacula yallundae TriR1 to EC50 for wild type Oculimacula yallundae TriS by germ tube elongation assay; assay type: functional
[17] = test system: Oculimacula acuformis; assay: Fungicidal activity against Oculimacula acuformis assessed as inhibition of germ tube elongation incubated at 19 degC in dark for 48 hr; assay type: functional, organism-based
[18] = test system: Oculimacula yallundae; assay: Resistance index, ratio of EC50 for sterol 14alpha-demethylation inhibitor-resistant Oculimacula yallundae MDR to EC50 for wild type Oculimacula yallundae TriS by mycelial growth inhibition assay; assay type: functional
[19] = test system: Oculimacula yallundae; assay: Resistance index, ratio of EC50 for sterol 14alpha-demethylation inhibitor-resistant Oculimacula yallundae MDR to EC50 for sterol 14alpha-demethylation inhibitor-resistant Oculimacula yallundae TriR1 by mycelial growth inhibition assay; assay type: functional
[20] = test system: Oculimacula yallundae; assay: Resistance index, ratio of EC50 for sterol 14alpha-demethylation inhibitor-resistant Oculimacula yallundae TriR2 to EC50 for sterol 14alpha-demethylation inhibitor-resistant Oculimacula yallundae TriR1 by mycelial growth inhibition assay; assay type: functional
[21] = test system: Oculimacula yallundae; assay: Resistance index, ratio of EC50 for sterol 14alpha-demethylation inhibitor-resistant Oculimacula yallundae TriR1 to EC50 for wild type Oculimacula yallundae TriS by mycelial growth inhibition assay; assay type: functional
[22] = test system: Oculimacula yallundae; assay: Resistance index, ratio of EC50 for prochloraz-resistant Oculimacula yallundae isolate ProR1 to EC50 for prochloraz-susceptible Oculimacula yallundae isolate ProS by germ tube elongation inhibition assay; assay type: functional
[23] = Selectivity index, ratio of EC50 for Oculimacula acuformis to EC50 for Oculimacula yallundae in presence of 5 g sodium succinate by mycelial growth inhibition assay; assay type: functional
[24] = test system: Oculimacula yallundae; assay: Fungicidal activity against Oculimacula yallundae assessed as inhibition of mycelial growth in presence of 5 g sodium succinate incubated at 19 degC in dark for 4 weeks; assay type: functional, organism-based; conditions: 672 h
[25] = test system: Oculimacula acuformis; assay: Fungicidal activity against Oculimacula acuformis assessed as inhibition of mycelial growth in presence of 5 g sodium succinate incubated at 19 degC in dark for 4 weeks; assay type: functional, organism-based; conditions: 672 h

SMILES	Ratio EC50 [2]	EC50 [3] [µg/mL]	Ratio EC50 [4]	Ratio EC50 [5]	Ratio EC50 [6]	EC50 [10] [µg/mL]	EC50 [12] [µg/mL]	Ratio EC50 [13]	Ratio EC50 [14]	Ratio EC50 [15]	Ratio EC50 [16]	EC50 [17] [µg/mL]	Ratio EC50 [18]	Ratio EC50 [19]	Ratio EC50 [20]	Ratio EC50 [21]	further results
OC(Cc1ccccc1Cl)(Cn1nc[nH]c1=S)C1(Cl)CC1 (stereo unspecified) [PROTHIOCONAZOLE]	1.3	0.08 (≈ 0.232 µM)	1	0.8	30	0.5	0.4	38	2	1.3	1.3	0.06 (≈ 0.174 µM)	4.5	1.8	0.8	2.5	EC50 [1]: 0.5 µg/mL; Ratio EC50 [7]: 1.5; EC50 [8]: 0.06 µg/mL (≈ 0.174 µM); Ratio EC50 [9]: 2.4; Ratio EC50 [11]: 1.6; Ratio EC50 [22]: 1.2
O=C(Nc1ccccc1-c1ccc(Cl)cc1)c1cccnc1Cl [BOSCALID]	1.3	0.03 (≈ 0.0874 µM)	1.2	0.8	4.5	0.3	0.4	5	1	0.08	1.1	0.025 (≈ 0.0728 µM)	7.5	10	1.3	0.8	Ratio EC50 [23]: 0.06; EC50 [24]: 5 µg/mL; EC50 [25]: 0.3 µg/mL
